Assay [1] has as its system HT29. Nature of the assay: cells. Type of assay: cell-based. The conditions noted are these: for IC50: Homo sapiens, HT-29, 2 h.
The subject of assay [2] is H460. Nature of the assay: cells. The conditions noted are these: for IC50: Homo sapiens, NCI-H460, 2 h. Format: cell-based.

Read-outs that look alike come from different tables or passages of the source. Where only a bound is given, the exact number is not on record here.

Broadly, the IC50 is the midpoint of a concentration-inhibition curve. Turning to `O=C(CO)Nc1ncccc1CC(c1ccsc1[N+](=O)[O-])S(=O)(=O)Oc1ccc(N(CCCl)CCCl)cc1` (stereo not drawn) [TH-1384], the “HT29 HCR: Air/N2” value in assay [1] stood at 16. In addition, the IC50 was 275 µM in assay [1] (read-out: 2 hr Air HT29 IC50), 17 µM in assay [1] (read-out: 2 hr N2 HT29 IC50), 64 µM in assay [2] (read-out: 2 hr Air H460 IC50) and 2.1 µM in assay [2] (read-out: 2 hr N2 H460 IC50). In addition, in assay [2], the “H460 HCR: Air/N2” value was 30.

`O=[N+]([O-])c1sccc1C(CCS(=O)(=O)CCO)S(=O)(=O)Oc1ccc(N(CCCl)CCCl)cc1` (stereo not drawn) [TH-1388]: the “HT29 HCR: Air/N2” value in assay [1] came to 30. Besides, the IC50 in assay [1] (read-out: 2 hr Air HT29 IC50) was found to be 420 µM; in assay [1] (read-out: 2 hr N2 HT29 IC50), 14 µM; in assay [2] (read-out: 2 hr Air H460 IC50) it was 49 µM; in assay [2] (read-out: 2 hr N2 H460 IC50) it was 1.4 µM. Besides, the “H460 HCR: Air/N2” value in assay [2] came to 35.

As to `O=[N+]([O-])c1sccc1C(Cc1cnc(O)c(Cl)c1)S(=O)(=O)Oc1ccc(N(CCCl)CCCl)cc1` (stereo not drawn) [TH-1393], the IC50 is 710 µM in assay [1] (read-out: 2 hr Air HT29 IC50), 110 µM in assay [1] (read-out: 2 hr N2 HT29 IC50), 151 µM in assay [2] (read-out: 2 hr Air H460 IC50) and 1.7 µM in assay [2] (read-out: 2 hr N2 H460 IC50). Further, the “H460 HCR: Air/N2” value in assay [2] was 89.

For `O=C(CO)Nc1ccc(CC(c2ccsc2[N+](=O)[O-])S(=O)(=O)Oc2ccc(N(CCCl)CCCl)cc2)cc1` (stereo not drawn) [TH-1400], the “HT29 HCR: Air/N2” value in assay [1] worked out at 2.1. Also, the IC50 in assay [1] (read-out: 2 hr Air HT29 IC50) came to 170 µM; in assay [1] (read-out: 2 hr N2 HT29 IC50), 80 µM; in assay [2] (read-out: 2 hr Air H460 IC50) it was 76 µM; in assay [2] (read-out: 2 hr N2 H460 IC50), 1.4 µM. In assay [2], the “H460 HCR: Air/N2” value is 54.3.

For the compound `Nc1cccc(OS(=O)(=O)CCC(c2ccsc2[N+](=O)[O-])S(=O)(=O)Oc2ccc(N(CCCl)CCCl)cc2)c1` (stereo not drawn) [TH-1402], the IC50 in assay [1] (read-out: 2 hr Air HT29 IC50) was above 1000 µM; in assay [1] (read-out: 2 hr N2 HT29 IC50), above 1000 µM; in assay [2] (read-out: 2 hr Air H460 IC50), 140 µM; in assay [2] (read-out: 2 hr N2 H460 IC50), 1.5 µM. Moreover, the “H460 HCR: Air/N2” value in assay [2] is 93.3.

In the case of `O=C(CO)Nc1cccc(OS(=O)(=O)CCC(c2ccsc2[N+](=O)[O-])S(=O)(=O)Oc2ccc(N(CCCl)CCCl)cc2)c1` (stereo not drawn) [TH-1414], the “HT29 HCR: Air/N2” value in assay [1] is reported as 7. Further, the 50% inhibitory concentration (IC50) in assay [1] (read-out: 2 hr Air HT29 IC50) was 740 µM; in assay [1] (read-out: 2 hr N2 HT29 IC50), 100 µM; in assay [2] (read-out: 2 hr Air H460 IC50), 135 µM; in assay [2] (read-out: 2 hr N2 H460 IC50), 2.5 µM. Moreover, the “H460 HCR: Air/N2” value in assay [2] stood at 54.

Turning to `O=[N+]([O-])c1sccc1C(Cc1nccs1)S(=O)(=O)Oc1ccc(N(CCCl)CCCl)cc1` (stereo not drawn) [TH-1419], the concentration for half-maximal inhibition (IC50) in assay [1] (read-out: 2 hr Air HT29 IC50) is above 300 µM; in assay [1] (read-out: 2 hr N2 HT29 IC50), above 300 µM; in assay [2] (read-out: 2 hr Air H460 IC50), 36 µM; in assay [2] (read-out: 2 hr N2 H460 IC50), 0.8 µM. Also, the “H460 HCR: Air/N2” value in assay [2] is reported as 45.

Consider `O=[N+]([O-])c1sccc1C(Cc1cnc(OCCO)c(Cl)c1)S(=O)(=O)Oc1ccc(N(CCCl)CCCl)cc1` (stereo not drawn) [TH-1420], for which the IC50 in assay [1] (read-out: 2 hr Air HT29 IC50) is above 300 µM; in assay [1] (read-out: 2 hr N2 HT29 IC50) it was above 300 µM; in assay [2] (read-out: 2 hr Air H460 IC50), 80 µM; in assay [2] (read-out: 2 hr N2 H460 IC50), 1.3 µM. Moreover, the “H460 HCR: Air/N2” value in assay [2] was 62.

In the case of `CCCN(CCCl)c1ccc(OS(=O)(=O)C(Cc2ncco2)c2ccsc2[N+](=O)[O-])cc1` (stereo not drawn) [TH-1422], the “HT29 HCR: Air/N2” value in assay [1] is given as above 3.3. The IC50 in assay [1] (read-out: 2 hr Air HT29 IC50) is above 300 µM; in assay [1] (read-out: 2 hr N2 HT29 IC50), 90 µM; in assay [2] (read-out: 2 hr Air H460 IC50), 35 µM; in assay [2] (read-out: 2 hr N2 H460 IC50), 0.4 µM. Moreover, the “H460 HCR: Air/N2” value in assay [2] is recorded as 88.

Consider `O=[N+]([O-])c1sccc1C(Cc1ccc(C(F)(F)F)nc1)S(=O)(=O)Oc1ccc(N(CCCl)CCCl)cc1` (stereo not drawn) [TH-1423], for which the IC50 is above 300 µM in assay [1] (read-out: 2 hr Air HT29 IC50), above 300 µM in assay [1] (read-out: 2 hr N2 HT29 IC50), 300 µM in assay [2] (read-out: 2 hr Air H460 IC50) and 0.4 µM in assay [2] (read-out: 2 hr N2 H460 IC50). Moreover, the “H460 HCR: Air/N2” value in assay [2] is 750.

Regarding `O=[N+]([O-])c1sccc1C(Cc1ccc(N2CCOCC2)nc1)S(=O)(=O)Oc1ccc(N(CCCl)CCCl)cc1` (stereo not drawn) [TH-1426], the IC50 was above 300 µM in assay [1] (read-out: 2 hr Air HT29 IC50), above 300 µM in assay [1] (read-out: 2 hr N2 HT29 IC50), 190 µM in assay [2] (read-out: 2 hr Air H460 IC50) and 0.2 µM in assay [2] (read-out: 2 hr N2 H460 IC50). The “H460 HCR: Air/N2” value in assay [2] was 950.

As to `O=[N+]([O-])c1sccc1C(Cc1ccc2nccn2c1)S(=O)(=O)Oc1ccc(N(CCCl)CCCl)cc1` (stereo not drawn) [TH-1435, 3-(4-(N,N-bis-(2-Chloroethyl)amino)phenoxysulfonyl-(imidazopyidin-5-yl-methyl))methyl-2-nitrothiophene], the “HT29 HCR: Air/N2” value in assay [1] is given as above 35. Moreover, the IC50 was above 300 µM in assay [1] (read-out: 2 hr Air HT29 IC50), 8.5 µM in assay [1] (read-out: 2 hr N2 HT29 IC50), 18 µM in assay [2] (read-out: 2 hr Air H460 IC50) and 0.6 µM in assay [2] (read-out: 2 hr N2 H460 IC50). The “H460 HCR: Air/N2” value in assay [2] was determined as 30.

Regarding `CNc1ccc(CC(c2ccsc2[N+](=O)[O-])S(=O)(=O)Oc2ccc(N(CCCl)CCCl)cc2)cn1` (stereo not drawn) [TH-1442], the “HT29 HCR: Air/N2” value in assay [1] turned out to be 66. Besides, the half-maximal inhibitory concentration (IC50) in assay [1] (read-out: 2 hr Air HT29 IC50) amounted to 230 µM; in assay [1] (read-out: 2 hr N2 HT29 IC50) it was 3.5 µM; in assay [2] (read-out: 2 hr Air H460 IC50), 93 µM; in assay [2] (read-out: 2 hr N2 H460 IC50), 0.8 µM. In assay [2], the “H460 HCR: Air/N2” value was 116.

With `O=[N+]([O-])c1sccc1C(Cc1ccc2c(c1)nnn2CCO)S(=O)(=O)Oc1ccc(N(CCCl)CCCl)cc1` (stereo not drawn) [TH-1451, 3-(4-(N,N-bis-(2-Chloroethyl)amino)phenoxysulfonyl-(1-(2-hydroxyethyl)benzotriazol-5-yl-methyl))methyl-2-nitrothiophene], in assay [1], the “HT29 HCR: Air/N2” value is given as 42. Further, the 50% inhibitory concentration (IC50) in assay [1] (read-out: 2 hr Air HT29 IC50) stood at 250 µM; in assay [1] (read-out: 2 hr N2 HT29 IC50), 6 µM; in assay [2] (read-out: 2 hr Air H460 IC50), 110 µM; in assay [2] (read-out: 2 hr N2 H460 IC50), 1 µM. Also, in assay [2], the “H460 HCR: Air/N2” value turned out to be 110.

Regarding `O=[N+]([O-])c1sccc1C(Cc1cn2ccccc2n1)S(=O)(=O)Oc1ccc(N(CCCl)CCCl)cc1` (stereo not drawn) [TH-1456, 3-(4-(N,N-bis-(2-Chloroethyl)amino)phenoxysulfonyl-(imidazopyridin-2-yl-methyl))methyl-2-nitrothiophene], in assay [1], the “HT29 HCR: Air/N2” value is above 60. Further, the IC50 in assay [1] (read-out: 2 hr Air HT29 IC50) was above 300 µM; in assay [1] (read-out: 2 hr N2 HT29 IC50), 5 µM; in assay [2] (read-out: 2 hr Air H460 IC50), 30 µM; in assay [2] (read-out: 2 hr N2 H460 IC50), 0.3 µM. Besides, the “H460 HCR: Air/N2” value in assay [2] stood at 100.

Regarding `O=[N+]([O-])c1sccc1C(Cc1ccc2nnn(CCO)c2c1)S(=O)(=O)Oc1ccc(N(CCCl)CCCl)cc1` (stereo not drawn) [TH-1457, 3-(4-(N,N-bis-(2-Chloroethyl)amino)phenoxysulfonyl-(1-(2-hydroxyethyl)benzotriazol-6-yl-methyl))methyl-2-nitrothiophene], in assay [1], the “HT29 HCR: Air/N2” value was 45. Moreover, the 50% inhibitory concentration (IC50) stood at 180 µM in assay [1] (read-out: 2 hr Air HT29 IC50), 4 µM in assay [1] (read-out: 2 hr N2 HT29 IC50), 120 µM in assay [2] (read-out: 2 hr Air H460 IC50) and 0.5 µM in assay [2] (read-out: 2 hr N2 H460 IC50). Further, the “H460 HCR: Air/N2” value in assay [2] was determined as 240.

`C[C@H](O)C(=O)Nc1ccc(CC(c2ccsc2[N+](=O)[O-])S(=O)(=O)Oc2ccc(N(CCCl)CCCl)cc2)cn1` (stereo partly drawn) [TH-1465, 3-(4-(N,N-bis-(2-Chloroethyl)amino)phenoxysulfonyl-(2-(lactic acylamino)pyridine-5-yl-methyl))methyl-2-nitrothiophene]: the “HT29 HCR: Air/N2” value in assay [1] is 30. Further, the 50% inhibitory concentration (IC50) in assay [1] (read-out: 2 hr Air HT29 IC50) is 210 µM; in assay [1] (read-out: 2 hr N2 HT29 IC50), 7 µM; in assay [2] (read-out: 2 hr Air H460 IC50) it was 40 µM; in assay [2] (read-out: 2 hr N2 H460 IC50), 0.8 µM. For the same compound, the “H460 HCR: Air/N2” value in assay [2] is 50.

On to `COCC(=O)N(C)c1ccc(CC(c2ccsc2[N+](=O)[O-])S(=O)(=O)Oc2ccc(N(CCCl)CCCl)cc2)cn1` (stereo not drawn) [TH-1478, 3-(4-(N,N-bis-(2-Chloroethyl)amino)phenoxysulfonyl-(2-(N-methoxyacetyl-N-methylamino)pyridin-5-yl-methyl))methyl-2-nitrothiophene], for which the “HT29 HCR: Air/N2” value in assay [1] was determined as 11. Besides, the IC50 was found to be 220 µM in assay [1] (read-out: 2 hr Air HT29 IC50), 20 µM in assay [1] (read-out: 2 hr N2 HT29 IC50), 120 µM in assay [2] (read-out: 2 hr Air H460 IC50) and 0.4 µM in assay [2] (read-out: 2 hr N2 H460 IC50). Also, in assay [2], the “H460 HCR: Air/N2” value came to 300.

The record behind these values is patent US8309554B2 (priority 2008, dated 2012).
